Measured values reported in a compilation of properties of binary mixtures (doi:10.1016/j.molliq.2017.04.129).

Assay: xn = mol fraction of the nth substance listed
Conditions: 100 kPa

COCCOCCO + CCCC[n+]1ccn(C)c1.O=S(=O)([O-])C(F)(F)F
speed of sound [m/s]
Conditions | x2 = 0 | x2 = 0.1 | x2 = 0.2056 | x2 = 0.3064 | x2 = 0.3986 | x2 = 0.4904 | x2 = 0.5981 | x2 = 0.6945 | x2 = 0.7795 | x2 = 0.9015
298.15 K | 1415.8 | 1423.6 | 1420.5 | 1415.5 | 1410.7 | 1406.3 | – | 1398.8 | 1396.8 | 1394.5
303.15 K | – | 1408.2 | 1406.1 | 1401.6 | 1397.5 | – | 1390 | 1386.9 | – | 1383.3
308.15 K | – | 1392.4 | 1391.5 | 1387.8 | 1384.4 | 1381 | 1378 | 1375.4 | 1374 | 1372
313.15 K | 1366.4 | 1376.8 | 1376.9 | – | 1371.3 | 1368.4 | – | – | 1362.6 | 1360.9
318.15 K | – | – | – | – | – | 1356 | 1354 | 1352.2 | 1351.2 | 1349.9
323.15 K | 1333.4 | 1345.6 | 1348 | 1346.9 | 1345.5 | 1343.6 | – | 1340.7 | – | 1338.9

CCCC[n+]1ccn(C)c1.O=S(=O)([O-])C(F)(F)F + COCCOCCO
x1 = 1
Conditions | speed of sound [m/s]
298.15 K | 1392.8
308.15 K | 1370.6
313.15 K | 1359.6
